# Assay results as given in ChEMBL document CHEMBL1201861, “Genomics of Drug Sensitity in Cancer screening data, Wellcome Trust Sanger Institute”.
# pIC50: −log10 of the molar value.
# Experiments:
# Assay in all cases: cells
# HT-144 = type: functional, cell-based, Homo sapiens; conditions: Homo sapiens, HT-144
# Description: SANGER: Inhibition of human HT-144 cell growth in a cell viability assay.
# CAL-62 = type: functional, cell-based, Homo sapiens; conditions: Homo sapiens, CAL-62;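 note: growth inhibition of CAL-62 cells, read out with a cell viability assay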
# Description: SANGER: Inhibition of human CAL-62 cell growth in a cell viability assay.
# PANC-08-13 = type: functional, cell-based, Homo sapiens; conditions: Homo sapiens, PANC-08-13;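 note: cell growth inhibition, measured with a cell viability assay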
# Description: SANGER: Inhibition of human PANC-08-13 cell growth in a cell viability assay.
# KYSE-70 cell line = type: functional, cell-based, Homo sapiens; conditions: Homo sapiens, KYSE-70;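 note: cell viability assay read-out, with IC50 expressing suppression of KYSE-70 cell growth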
# Description: SANGER: Inhibition of human KYSE-70 cell growth in a cell viability assay.
# IST-SL1 = type: functional, cell-based, Homo sapiens; conditions: Homo sapiens, IST-SL1;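 note: growth inhibition of human IST-SL1 cells, read out with a cell viability assay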
# Description: SANGER: Inhibition of human IST-SL1 cell growth in a cell viability assay.
# SK-N-AS = type: functional, cell-based, Homo sapiens; conditions: Homo sapiens, SK-N-AS;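 note: growth inhibition of human SK-N-AS cells, measured with a cell viability assay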
# Description: SANGER: Inhibition of human SK-N-AS cell growth in a cell viability assay.
# SK-MEL-2 = type: functional, cell-based, Homo sapiens; conditions: Homo sapiens, SK-MEL-2;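 note: growth inhibition of human SK-MEL-2 cells measured with a cell viability assay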
# Description: SANGER: Inhibition of human SK-MEL-2 cell growth in a cell viability assay.
# LC-2-ad = type: functional, cell-based, Homo sapiens; conditions: Homo sapiens, LC-2-ad;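 note: growth inhibition of human LC-2-ad cells, read out with a cell viability assay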
# Description: SANGER: Inhibition of human LC-2-ad cell growth in a cell viability assay.
# MC116 = type: functional, cell-based; conditions: Homo sapiens;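 note: growth inhibition of MC116 cells, read out with a cell viability assay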
# Description: SANGER: Inhibition of human MC116 cell growth in a cell viability assay.
# DBTRG-05MG = type: functional, cell-based, Homo sapiens; conditions: Homo sapiens, DBTRG-05MG;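 note: cell viability assay measuring growth inhibition of human DBTRG-05MG cells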
# Description: SANGER: Inhibition of human DBTRG-05MG cell growth in a cell viability assay.
# TE-12 = type: functional, cell-based; conditions: Homo sapiens;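 note: growth inhibition of TE-12 cells, read out by a cell viability assay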
# Description: SANGER: Inhibition of human TE-12 cell growth in a cell viability assay.
# MPP-89 = type: functional, cell-based, Homo sapiens; conditions: Homo sapiens, MPP-89;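 note: growth inhibition of human MPP-89 cells, read out with a cell viability assay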
# Description: SANGER: Inhibition of human MPP-89 cell growth in a cell viability assay.
# SW1710 = type: functional, cell-based, Homo sapiens; conditions: Homo sapiens, SW1710;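 note: growth inhibition of SW1710 cells, determined with a cell viability assay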
# Description: SANGER: Inhibition of human SW1710 cell growth in a cell viability assay.
# LCLC-103H cell line = type: functional, cell-based, Homo sapiens; conditions: Homo sapiens, LCLC-103H
# Description: SANGER: Inhibition of human LCLC-103H cell growth in a cell viability assay.
# JVM-2 = type: functional, cell-based; conditions: Homo sapiens;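 note: growth inhibition of JVM-2 cells determined by a cell viability assay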
# Description: SANGER: Inhibition of human JVM-2 cell growth in a cell viability assay.
# NCI-H650 = type: functional, cell-based, Homo sapiens; conditions: Homo sapiens, NCI-H650;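 note: growth inhibition of NCI-H650 cells, read out by a viability assay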
# Description: SANGER: Inhibition of human NCI-H650 cell growth in a cell viability assay.
# TE-11 = type: functional, cell-based, Homo sapiens; conditions: Homo sapiens, TE-11;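 note: growth inhibition of human TE-11 cells, read out by a cell viability assay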
# Description: SANGER: Inhibition of human TE-11 cell growth in a cell viability assay.
# KARPAS-299 = type: functional, cell-based; conditions: Homo sapiens
# Description: SANGER: Inhibition of human KARPAS-299 cell growth in a cell viability assay.
# MZ2-MEL = type: functional, cell-based, Homo sapiens; conditions: Homo sapiens, MZ2-MEL;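 note: growth inhibition of MZ2-MEL cells read out with a cell viability assay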
# Description: SANGER: Inhibition of human MZ2-MEL cell growth in a cell viability assay.
# HT-3 = type: functional, cell-based, Homo sapiens; conditions: Homo sapiens, HT-3;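 note: growth inhibition measured with a cell viability readout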
# Description: SANGER: Inhibition of human HT-3 cell growth in a cell viability assay.
# COR-L23 = type: functional, cell-based, Homo sapiens; conditions: Homo sapiens, COR-L23;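 note: cell viability assay measuring how strongly compounds suppress growth of COR-L23 cells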
# Description: SANGER: Inhibition of human COR-L23 cell growth in a cell viability assay.
# KMOE-2 = type: functional, cell-based; conditions: Homo sapiens;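 note: growth inhibition of human KMOE-2 cells, read out with a cell viability assay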
# Description: SANGER: Inhibition of human KMOE-2 cell growth in a cell viability assay.
# U-251 = type: functional, cell-based, Homo sapiens; conditions: Homo sapiens, U-251;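 note: growth inhibition of human U-251 cells, read out through a cell viability assay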
# Description: SANGER: Inhibition of human U251 cell growth in a cell viability assay.
# LU-134-A = type: functional, cell-based; conditions: Homo sapiens
# Description: SANGER: Inhibition of human LU-134-A cell growth in a cell viability assay.
# SK-MEL-1 = type: functional, cell-based; conditions: Homo sapiens;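 note: growth inhibition of human SK-MEL-1 cells, read out by a cell viability assay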
# Description: SANGER: Inhibition of human SK-MEL-1 cell growth in a cell viability assay.
# NTERA-2-cl-D1 = type: functional, cell-based, Homo sapiens; conditions: Homo sapiens, NTERA-2-cl-D1;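 note: inhibition of cell growth, measured with a cell viability assay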
# Description: SANGER: Inhibition of human NTERA-S-cl-D1 cell growth in a cell viability assay.
# KYSE-510 = type: functional, cell-based, Homo sapiens; conditions: Homo sapiens, KYSE-510;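 note: cell viability readout used to measure how strongly growth of the cell line is suppressed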
# Description: SANGER: Inhibition of human KYSE-510 cell growth in a cell viability assay.
# KGN = type: functional, cell-based, Homo sapiens; conditions: Homo sapiens, KGN;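 note: growth inhibition of KGN cells, read out with a cell viability assay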
# Capan-2 = type: functional, cell-based, Homo sapiens; conditions: Homo sapiens, Capan-2;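 note: Capan-2 cell growth inhibition, read out with a viability assay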
# MZ1-PC = type: functional, cell-based, Homo sapiens; conditions: Homo sapiens, MZ1-PC;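 note: cell viability assay measuring growth inhibition of human MZ1-PC cells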
# Description: SANGER: Inhibition of human MZ1-PC cell growth in a cell viability assay.
# HT-29 = type: functional, cell-based, Homo sapiens; conditions: Homo sapiens, HT-29;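 note: growth inhibition of human HT-29 cells, read out by a cell viability assay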
# Description: SANGER: Inhibition of human HT-29 cell growth in a cell viability assay.
# NCI-H23 = type: functional, cell-based, Homo sapiens; conditions: Homo sapiens, NCI-H23;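 note: cell viability assay measuring growth inhibition of NCI-H23 cells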
# Description: SANGER: Inhibition of human NCI-H23 cell growth in a cell viability assay.
# GMS-10 = type: functional, cell-based, Homo sapiens; conditions: Homo sapiens, GMS-10;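 note: growth inhibition of GMS-10 cells, read out as cell viability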
# Description: SANGER: Inhibition of human GMS-10 cell growth in a cell viability assay.
# MN-60 = type: functional, cell-based; conditions: Homo sapiens;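 note: growth inhibition of the MN-60 cell line, determined with a cell viability assay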
# Description: SANGER: Inhibition of human MN-60 cell growth in a cell viability assay.
# HuP-T3 = type: functional, cell-based, Homo sapiens; conditions: Homo sapiens, HuP-T3;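 note: HuP-T3 cell growth inhibition, read out with a cell viability assay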
# Description: SANGER: Inhibition of human HuP-T3 cell growth in a cell viability assay.
# OE33 = type: functional, cell-based, Homo sapiens; conditions: Homo sapiens, OE33;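 note: growth inhibition of human OE33 cells, measured by a cell viability assay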
# Description: SANGER: Inhibition of human OE33 cell growth in a cell viability assay.
# FTC-133 = type: functional, cell-based, Homo sapiens; conditions: Homo sapiens, FTC-133
# OAW-42 = type: functional, cell-based, Homo sapiens; conditions: Homo sapiens, OAW-42;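 note: growth inhibition of OAW-42 cells, read out with a cell viability assay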
# Description: SANGER: Inhibition of human OAW-42 cell growth in a cell viability assay.
# SH-4 = type: functional, cell-based, Homo sapiens; conditions: Homo sapiens, SH-4;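 note: growth inhibition of SH-4 cells, read out with a cell viability assay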
# Description: SANGER: Inhibition of human SH-4 cell growth in a cell viability assay.
# BHT-101 = type: functional, cell-based, Homo sapiens; conditions: Homo sapiens, BHT-101
# LS-1034 = type: functional, cell-based, Homo sapiens; conditions: Homo sapiens, LS-1034
# Description: SANGER: Inhibition of human LS-1034 cell growth in a cell viability assay.
# IST-MEL1 = type: functional, cell-based, Homo sapiens; conditions: Homo sapiens, IST-MEL1;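 note: growth inhibition of the cell line, read out with a cell viability assay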
# Description: SANGER: Inhibition of human IST-MEL1 cell growth in a cell viability assay.
# LOX IMVI = type: functional, cell-based; conditions: Homo sapiens
# Description: SANGER: Inhibition of human LOXIMVI cell growth in a cell viability assay.
# KOSC-2 = type: functional, cell-based, Homo sapiens; conditions: Homo sapiens, KOSC-2;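 note: growth inhibition of KOSC-2 cells, read out by a cell viability assay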
# SW837 = type: functional, cell-based, Homo sapiens; conditions: Homo sapiens, SW837;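 note: growth inhibition of SW837 cells, determined with a cell viability assay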
# Description: SANGER: Inhibition of human SW837 cell growth in a cell viability assay.
# D-542MG = type: functional, cell-based, Homo sapiens; conditions: Homo sapiens, D-542MG
# Description: SANGER: Inhibition of human D-542MG cell growth in a cell viability assay.
# NCI-H1623 = type: functional, cell-based, Homo sapiens; conditions: Homo sapiens, NCI-H1623;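 note: cell viability assay used as the read-out for growth inhibition of NCI-H1623 cells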
# Description: SANGER: Inhibition of human NCI-H1623 cell growth in a cell viability assay.
# UO-31 = type: functional, cell-based; conditions: Homo sapiens;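 note: cell viability assay measuring inhibition of cell growth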
# Description: SANGER: Inhibition of human U031 cell growth in a cell viability assay.
# DEL = type: functional, cell-based; conditions: Homo sapiens;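 note: growth inhibition of the human DEL cell line, read out with a cell viability assay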
# Description: SANGER: Inhibition of human DEL cell growth in a cell viability assay.
# NCI-H2228 = type: functional, cell-based, Homo sapiens; conditions: Homo sapiens, NCI-H2228;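 note: growth inhibition of human NCI-H2228 cells, read out by a cell viability assay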
# Description: SANGER: Inhibition of human NCI-H2228 cell growth in a cell viability assay.
# IGROV-1 = type: functional, cell-based, Homo sapiens; conditions: Homo sapiens, IGROV-1;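 note: reduction of IGROV-1 cell growth, read out with a viability assay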
# Description: SANGER: Inhibition of human IGROV-1 cell growth in a cell viability assay.
structure (smiles),measurement,setting,value
C=CCc1cccc(/C=N/NC(=O)CN2CCN(Cc3ccccc3)CC2)c1O [PAC-1],pIC50,HT-144,5.60
same,pIC50,CAL-62,< 5.59
same,pIC50,PANC-08-13,< 5.59
same,pIC50,KYSE-70 cell line,< 5.59
same,pIC50,IST-SL1,< 5.59
same,pIC50,SK-N-AS,< 5.59
same,pIC50,SK-MEL-2,< 5.59
same,pIC50,LC-2-ad,6.05
same,pIC50,MC116,5.92
same,pIC50,DBTRG-05MG,< 5.59
same,pIC50,TE-12,< 5.59
same,pIC50,MPP-89,< 5.59
same,pIC50,SW1710,< 5.59
same,pIC50,LCLC-103H cell line,5.95
same,pIC50,JVM-2,< 5.59
same,pIC50,NCI-H650,< 5.59
same,pIC50,TE-11,< 5.59
same,pIC50,KARPAS-299,< 5.59
same,pIC50,MZ2-MEL,< 5.59
same,pIC50,HT-3,< 5.59
same,pIC50,COR-L23,< 5.59
same,pIC50,KMOE-2,< 5.59
same,pIC50,U-251,< 5.59
same,pIC50,LU-134-A,< 5.59
same,pIC50,SK-MEL-1,< 5.59
same,pIC50,NTERA-2-cl-D1,< 5.59
same,pIC50,KYSE-510,5.74
same,pIC50,KGN,5.67
same,pIC50,Capan-2,< 5.59
same,pIC50,MZ1-PC,< 5.59
same,pIC50,HT-29,< 5.59
same,pIC50,NCI-H23,< 5.59
same,pIC50,GMS-10,< 5.59
same,pIC50,MN-60,< 5.59
same,pIC50,HuP-T3,< 5.59
same,pIC50,OE33,< 5.59
same,pIC50,FTC-133,< 5.59
same,pIC50,OAW-42,< 5.59
same,pIC50,SH-4,< 5.59
same,pIC50,BHT-101,< 5.59
same,pIC50,LS-1034,< 5.59
same,pIC50,IST-MEL1,< 5.59
same,pIC50,LOX IMVI,< 5.59
same,pIC50,KOSC-2,< 5.59
same,pIC50,SW837,< 5.59
same,pIC50,D-542MG,< 5.59
same,pIC50,NCI-H1623,< 5.59
same,pIC50,UO-31,5.82
same,pIC50,DEL,< 5.59
same,pIC50,NCI-H2228,< 5.59
same,pIC50,IGROV-1,5.87
Cc1ccc(Nc2nccc(N(C)c3ccc4c(C)n(C)nc4c3)n2)cc1S(N)(=O)=O [PAZOPANIB],pIC50,HT-144,< 5.10
same,pIC50,CAL-62,< 5.10
same,pIC50,PANC-08-13,< 5.10
same,pIC50,KYSE-70 cell line,< 5.10
same,pIC50,IST-SL1,< 5.10
same,pIC50,SK-N-AS,< 5.10
same,pIC50,SK-MEL-2,< 5.10
same,pIC50,LC-2-ad,< 5.10
same,pIC50,MC116,< 5.10
same,pIC50,DBTRG-05MG,< 5.10
same,pIC50,TE-12,< 5.10
same,pIC50,MPP-89,< 5.10
same,pIC50,SW1710,5.35
same,pIC50,LCLC-103H cell line,5.84
same,pIC50,JVM-2,< 5.10
same,pIC50,NCI-H650,< 5.10
same,pIC50,TE-11,< 5.10
same,pIC50,KARPAS-299,< 5.10
same,pIC50,MZ2-MEL,5.16
same,pIC50,HT-3,< 5.10
same,pIC50,COR-L23,< 5.10
same,pIC50,KMOE-2,< 5.10
same,pIC50,U-251,< 5.10
same,pIC50,LU-134-A,< 5.10
same,pIC50,SK-MEL-1,< 5.10
same,pIC50,NTERA-2-cl-D1,< 5.10
same,pIC50,KYSE-510,< 5.10
same,pIC50,KGN,5.39
same,pIC50,Capan-2,< 5.10
same,pIC50,MZ1-PC,< 5.10
same,pIC50,HT-29,< 5.10
same,pIC50,NCI-H23,< 5.10
same,pIC50,GMS-10,< 5.10
same,pIC50,MN-60,< 5.10
same,pIC50,HuP-T3,< 5.10
same,pIC50,OE33,< 5.10
same,pIC50,FTC-133,< 5.10
same,pIC50,OAW-42,< 5.10
same,pIC50,SH-4,< 5.10
same,pIC50,BHT-101,< 5.10
same,pIC50,LS-1034,< 5.10
same,pIC50,IST-MEL1,< 5.10
same,pIC50,LOX IMVI,< 5.10
same,pIC50,KOSC-2,< 5.10
same,pIC50,SW837,< 5.10
same,pIC50,D-542MG,< 5.10
same,pIC50,NCI-H1623,< 5.10
same,pIC50,UO-31,< 5.10
same,pIC50,DEL,< 5.10
same,pIC50,NCI-H2228,< 5.10
same,pIC50,IGROV-1,5.49
CN(c1ncccc1CNc1nc(Nc2ccc3c(c2)CC(=O)N3)ncc1C(F)(F)F)S(C)(=O)=O [PF-00562271],pIC50,HT-144,< 5.59
same,pIC50,CAL-62,5.88
same,pIC50,PANC-08-13,< 5.59
same,pIC50,KYSE-70 cell line,< 5.59
same,pIC50,IST-SL1,< 5.59
same,pIC50,SK-N-AS,< 5.59
same,pIC50,SK-MEL-2,< 5.59
same,pIC50,LC-2-ad,5.64
same,pIC50,MC116,< 5.59
same,pIC50,DBTRG-05MG,< 5.59
same,pIC50,TE-12,< 5.59
same,pIC50,MPP-89,< 5.59
same,pIC50,SW1710,5.79
same,pIC50,LCLC-103H cell line,5.81
same,pIC50,JVM-2,< 5.59
same,pIC50,NCI-H650,6.08
same,pIC50,TE-11,5.79
same,pIC50,KARPAS-299,< 5.59
same,pIC50,MZ2-MEL,< 5.59
same,pIC50,HT-3,< 5.59
same,pIC50,COR-L23,< 5.59
same,pIC50,KMOE-2,< 5.59
same,pIC50,U-251,5.76
same,pIC50,LU-134-A,< 5.59
same,pIC50,SK-MEL-1,< 5.59
same,pIC50,NTERA-2-cl-D1,< 5.59
same,pIC50,KYSE-510,< 5.59
same,pIC50,KGN,< 5.59
same,pIC50,Capan-2,< 5.59
same,pIC50,MZ1-PC,5.79
same,pIC50,HT-29,< 5.59
same,pIC50,NCI-H23,< 5.59
same,pIC50,GMS-10,< 5.59
same,pIC50,MN-60,< 5.59
same,pIC50,HuP-T3,< 5.59
same,pIC50,OE33,< 5.59
same,pIC50,FTC-133,< 5.59
same,pIC50,OAW-42,< 5.59
same,pIC50,SH-4,< 5.59
same,pIC50,BHT-101,< 5.59
same,pIC50,LS-1034,< 5.59
same,pIC50,IST-MEL1,< 5.59
same,pIC50,LOX IMVI,< 5.59
same,pIC50,KOSC-2,< 5.59
same,pIC50,SW837,< 5.59
same,pIC50,D-542MG,< 5.59
same,pIC50,NCI-H1623,< 5.59
same,pIC50,UO-31,< 5.59
same,pIC50,DEL,< 5.59
same,pIC50,NCI-H2228,< 5.59
same,pIC50,IGROV-1,6.09
